Values of other authors in patent US20090012008A1, “Pharmaceutical Composition for Photodynamic Therapy and a Method for Treating Oncological Diseases by Using Said Composition” (priority 2005, published 2009).

Legend:
[1] = test system: fibroblasts
[2] = test system: keratinocytes
[3] = test system: tumor cells of the HeLa S3 line; details: HeLa S3, in vitro

Row | Compound | effect on viability and proliferation rate [1] | effect on viability and proliferation rate [2] | cytotoxic activity [3]
1 | c12c3c4c5c1c1c6c7c2c2c8c3c3c9c4c4c%10c5c5c1c1c6c6c%11c7c2c2c7c8c3c3c8c9c4c4c9c%10c5c5c1c1c6c6c%11c2c2c7c3c3c8c4c4c9c5c1c1c6c2c3c41 [fullerene C60] | no effect | no effect | 
2 | fullerocyclopentane |  |  | manifest only upon irradiation with light
